Experimental data: patent US5736523A, “Antineoplastic heteronapthoquinones” (Biochem Pharma Inc., priority 1995, dated 1998)
Where two headings read alike, the source gives them in different places.

Assays:
Format in all cases: cell-based, human
Lox (Melanoma) = assay: In vitro cytotoxicity, microculture tetrazolium (MTT) assay, Lox; settings: read-out: IC50
Description: (§1) In Vitro Cytotoxicity--Microculture Tetrazolium Assay
(§2) The microculture tetrazolium assay was used to test in vitro cytotoxicity. This assay is described in Plumb, J. A. et al., 1989 Cancer Research 49, 4435-4440, which is herein incorporated by reference. The cytotoxicity of compounds towards tumor cells is measured in vitro using the assay. This assay method is based upon the ability of live, but not dead cells to reduce the yellow water soluble dye 3-(4;5-dimethylthiazol-2-yl)-2,5-diphenyltetrazolium bromide (MTT) to its water insoluble purple formazan product.
(§3) Human Tumor Cell lines, used were:
Lox (Melanoma)--Southern Research Institute.
(§4) The cells were maintained in exponential growth in culture in minimal essential media (MEM) supplemented with non-essential amino acids, and containing 15% (v/v) fetal bovine serum, 5 mM L-glutamine, 1 mM sodium pyruvate, and 0.1 U/ml insulin. All cell lines were grown at 37° C. in an atmosphere of 5% CO2 in air.
(§5) Test compounds: 20 mM in DMSO and diluted to a final concentration of 200 μM in culture medium before use.
(§6) The following is the generic description of the assay method. It should be noted that although the conditions described work well with the cells listed above, the initial plating density and the MTT concentration used should be verified for each new cell line used to test compounds.
(§7) For each assay, doxorubicin is included as an inter-assay standard. This allows us to monitor the behaviour of the assay in general, and in particular, to check that the SKVLB line has maintained its resistant phenotype.
(§8) The plate layout is done in the following manner: The assays are carried out in 96-well (8 well×12 well) microtiter plates. Serial dilutions of the compound are tested along the length of the plate. A 1:3 serial dilution of compound in culture medium covers a concentration range from 100 μM to 1.7 nM. Each concentration of compound is tested in quadruplet, allowing two compounds to be tested per plate. Wells containing no cells (blank) and cells with no test compound (control) are included on each plate.
(§9) Cells are plated out in 100 μl of culture medium in the microtiter plates at a density of around 1,500-4,000 cells per well. The plates are incubated overnight to allow the cells to become adherent after which the test compound is added (100 μl of appropriate dilution per well). The cells are incubated with test compound at 37° C. for 48 h after which the compound is replaced with fresh medium. After a further 48 h incubation at 37° C., 50 μl of MTT solution (2 mg/ml) is added to each well. The plates are incubated in the dark for 4 h at 37° C. after which the medium is removed. The MTT formazan product is extracted from the cells by the addition of 200 μl DMSO followed by 50 μl of Sorensen's buffer. The plates are shaken briefly and the absorbance at 570 nm is read using a Molecular Devices UV max plate reader. Curves are fit to the MTT assay data using a four parameter logistic equation, and the data are normalized to fit a 0% to 100% survival scale.

[1] = tested on: HT 29 (Colon adenocarcinoma); assay: In vitro cytotoxicity, microculture tetrazolium (MTT) assay, HT 29; settings: read-out: IC50
Description: as §1, §2, §3
HT 29 (Colon adenocarcinoma) ATCC catalog #HTB-38.
as §4, §5, §6, §7, §8, §9

[2] = tested on: T47D (Ductal carcinoma of breast); assay: In vitro cytotoxicity, microculture tetrazolium (MTT) assay, T47D; settings: read-out: IC50
Description: as §1, §2, §3
T47D (Ductal carcinoma of breast)--ATCC catalog #HTB-133.
as §4, §5, §6, §7, §8, §9

[3] = tested on: SKOV3 (Ovarian adenocarcinoma); assay: In vitro cytotoxicity, microculture tetrazolium (MTT) assay, SKOV3; settings: read-out: IC50
Description: as §1, §2, §3
SKOV3 (Ovarian adenocarcinoma)--provided by Dr. V. Ling,
as §4, §5, §6, §7, §8, §9

[4] = tested on: SKVLB (Ovarian; multidrug resistant); assay: In vitro cytotoxicity, microculture tetrazolium (MTT) assay, SKVLB; settings: for IC50: SKVLB, multidrug resistant, read-out: IC50; for VLB/OV3: ratio SKVLB / SKOV3
In short: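 Multidrug-resistant ovarian SKVLB cells exposed 48 h at 37 °C to 1:3 serial dilutions (100 μM–1.7 nM), then 48 h in fresh medium. MTT reduction read at 570 nm after DMSO extraction; four-parameter logistic fit normalized to 0–100% survival.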

Compound | IC50 (Lox (Melanoma); Homo sapiens) [nM] | IC50 ([1]; Homo sapiens, HT-29, HT29) [nM] | IC50 ([2]; Homo sapiens) [nM] | IC50 ([3]; Homo sapiens, SK-OV-3, SKOV3) [nM] | IC50 ([4]; Homo sapiens) [nM] | VLB/OV3 [4] | IC50 (Lox (Melanoma)) [nM] | IC50 ([1]; HT29) [nM] | IC50 [2] [nM] | IC50 ([3]; SKOV3) [nM] | IC50 [4] [nM]
C=CC[C@@H]1CC2=C(C(=O)c3ccccc3C2=O)[C@@H](O[C@H]2C[C@H](NC(=O)C(F)(F)F)[C@H](O)[C@H](C)O2)O1 (mixture of isomers) [BCH2031, (1'S,1S,3S) and (1'S,1-R,3-R)-3-([2',3',6'-trideoxy-3'-trifluoroacetamido-4'-hydroxy-L-lyhohexopyranose]-5,10-dioxo-3,4,5,10-tetrahydronaphtho-[2,3-c]-pyran-3-yl)-propene] | 2800 | 8500 | 16000 | 6000 | 18000 | 3 |  |  |  |  | 
COC1OC(C(=O)NCCCn2ccnc2)=CC2=C1C(=O)c1ccccc1C2=O (stereo not drawn) [BCH2157, (3-N-hydrochloroimidazolylpropyl)-1-methoxy-5,10-dioxo-5,10-dihydro-1H-naphtho-[2,3-c]-pyran-3-carboxamide] | 15.5 | 1230 | 233 | 187 | 3390 | 18.13 |  |  |  |  | 
Methyl-(6-hydroxy-5,10-dioxo-3,4,5,10-tetrahydronaphtho-[2,3-c]-pyran-3-yl)ketone and methyl-(9-hydroxy-5,10-dioxo-3,4,5,10-tetrahydronaphtho-[2,3-c]-pyran-3-yl) ketone [BCH2062] |  |  |  |  |  | 1.04 | 354 | 1140 | 776 | 810 | 842
CC(=NO)[C@@H]1CC2=C(C(=O)c3ccccc3C2=O)[C@@H](O[C@H]2C[C@H](NC(=O)C(F)(F)F)[C@H](O)[C@H](C)O2)O1 [BCH2115, (1'S,1R,3S)-3 (oximoethyl)-5,10-dioxo-1 (2,3,6-trideoxy-3-trifluoroacetamido-L-lyxohexopyranose)-3,4,5,10-tetrahydro-1H-naphtho-(2,3-c)-pyran] | 4000 | 5600 | 5300 | 2300 | > 100000 | > 50 |  |  |  |  | 
CC(=O)C1CC2=C(C(=O)c3ccccc3C2=O)C(O[C@H]2C[C@H](O)[C@H](O)[C@H](C)O2)O1 (mixture of isomers) [BCH2117, (1'S,1S,3R) and (1'S,1R,3S)-methyl-(1-[dideoxy-2',6'-dihydroxy-3',4'-L-lyxohexopyranose]-5,10-dioxo-3,4,5,10-tetrahydronaphtho-[2,3-c]-pyran-3-yl) ketone] |  |  |  |  |  | 35.13 | 73 | 30 | 37.4 | 9.5 | 332
CC(=O)[C@@H]1CC2=C(C(=O)c3ccccc3C2=O)[C@@H](O[C@@H]2O[C@H](CO)[C@@H](O)[C@H](O)[C@H]2NC(=O)N(CCCl)N=O)O1 [BCH2038, (1'R,1R,3S)-3-aceto-5,10-dioxo-1-(2-deoxy-2-chloroethyl-nitrosoureido-D-glucopyranose)-3,4,5,10-tetrahydro-1H-naphtho-[2,3-C] pyran] |  |  |  |  |  | 4.16 | 173 | 2000 | 2000 | 832 | 3500
(1S,2'S,3R) and (1R,2'S,3S)-methyl-(1-[O-prolinol]-3,4,5,12-tetrahydronaphtho-[2,3-C] pyran-3-yl) ketone hydrochloride salt [BCH1658] |  |  |  |  |  | 6.31 | 316 | 661 | 494 | 233 | 1470
CC(=O)C1CC2=C(C(=O)c3ccccc3C2=O)C(OC2CC(NC(=O)C(F)(F)F)C(O)C(C)O2)O1 (stereo not drawn) [BCH2144] |  |  |  |  |  | 0.75 | 3280 | 5930 | 7220 | 21400 | 16100
CC(=O)OC1C(C)OC(OC2OC(C(C)=O)CC3=C2C(=O)c2ccccc2C3=O)C(I)C1OC(C)=O (mixture of isomers) [BCH2065, (1'S,1R,1S) and (1'S,1S,3R)-methyl-(1-[2',6'-dideoxy-3',4'-diacetoxy-2'-iodo-L-arabino-hexopyranose]-5,10-dioxo-3,4,5,10-tetrahydronaphtho-[2,3-c]-pyran-3-yl) ketone] |  |  |  |  |  | 4 | 1400 | 3420 | 2200 | 1540 | 6100
C=CCC1CC2=C(C(=O)c3ccccc3C2=O)C(OC2CC(NC(=O)C(F)(F)F)C(O)C(C)O2)O1 (stereo not drawn) [BCH1648] |  |  |  |  |  | 6.07 | 138 | 309 | 360 | 51.9 | 315
C=CC[C@H]1CC2=C(C(=O)c3ccccc3C2=O)[C@@H](OC2C[C@H](NC(=O)C(F)(F)F)[C@H](O)[C@H](C)O2)O1 (stereo partly drawn) [BCH1649, (1'-S,1-R,3-S)-3-([2',3',6'-trideoxy-3'-trifluoroacetamido-4'-hydroxy-L-lyhohexopyranose]-5,10-dioxo-3,4,5,10-tetrahydronaphtho-[2,3-c]-pyran-3-yl)-propene] |  |  |  |  |  | 4.17 | 217 | 331 | 380 | 110 | 459
CC(=O)[C@H]1CC2=C(C(=O)c3ccccc3C2=O)[C@H](O[C@H]2C[C@H](NC(=O)C(F)(F)F)[C@H](OC(=O)CBr)[C@H](C)O2)O1 [BCH2105, (1'-S,1-S,3-R)-methyl-(1-[2',3',4',6' tetradeoxy-3'-trifluoroacetamido-4'-O-(2-bromo-acetyl)-L-lyxopyranose]-5,10-dioxo-3,4,5,10 tetrahydronaphtho-[2,3-c]pyran-3-yl) ketone] |  |  |  |  |  | 123 | 25 | 6.9 | 19 | 3 | 370
CC(NC(=O)C(F)(F)F)[C@H]1CC2=C(C(=O)c3ccccc3C2=O)[C@H](O[C@H]2C[C@H](O)[C@H](O)[C@H](C)O2)O1 (stereo partly drawn) [BCH2018, (1'S,1S,3R)-3-(trifluoroacetamidoethyl)-5,10-dioxo-1-(2',3',6'-trideoxy-3',4'-dihydroxy-L-lyxohexopyranose)-3,4,5,10-tetrahydro-1H-naphtho-[2,3-c]-pyran] | 2380 | 14200 | 8560 | 3110 | 17700 | 5.69 |  |  |  |  | 
CC(=O)C1CC2=C(C(=O)c3ccccc3C2=O)C(OC2CC(NC(=O)C(F)(F)F)C(NC(=O)C(F)(F)F)C(C)O2)O1 [BCH2102, (1R,3S,1'S) and (1S,3R,1'S)-Methyl-(1-[2',3',4',6'-tetradeoxy-3',4'-bis-trifluoroacetamido-L-arabinohexopyranose]-5,10-dioxo-3,4,5,10-tetrahydronaphthaleno-[2,3-c]pyran-3-yl) ketone] |  |  |  |  |  | 5.65 | 186 | 150 | 300 | 130 | 723
CCC1CC2=C(C(=O)c3ccccc3C2=O)C(OC2CC(OC(C)=O)C(OC(C)=O)C(C)O2)O1 (mixture of isomers) [BCH1607, (1'S,1S,3S) and (1'S,1R,3R)-5,10-dioxo-3-ethyl-1-(2',3',4',6'-tetradeoxy-3',4'-diacetoxy-L-lyxohexo-pyranose)-3,4,5,10-tetrahydro-1H-naphtho [2,3-C] pyran] |  |  |  |  |  | 2.73 | 8970 | 21600 | 14700 | 7260 | 19800
